Laboratory results from the NIST ThermoML archive (doi:10.1021/je0301038).

Test: xn = mol fraction of the nth substance listed
Details: Liquid, Pycnometric method, x1 = 0.4998

FC(Cl)(Cl)Cl [trichlorofluoromethane] + FC(F)(Cl)Cl
Details | mass density [kg/m3]
229.99 K, 36407 kPa | 1642.58
230 K, 1073 kPa | 1584.87
230 K, 2061 kPa | 1587.07
230 K, 3560 kPa | 1589.87
230.01 K, 1362 kPa | 1585.49
230.01 K, 1769 kPa | 1586.39
230.01 K, 2415 kPa | 1587.69
230.01 K, 2764 kPa | 1588.35
230.01 K, 3080 kPa | 1589
230.01 K, 10736 kPa | 1602.83
230.01 K, 22197 kPa | 1621.64
230.01 K, 50366 kPa | 1660.98
230.01 K, 63788 kPa | 1677.26
270 K, 755 kPa | 1479.99
270 K, 1039 kPa | 1480.78
270 K, 1716 kPa | 1482.68
270 K, 2040 kPa | 1483.59
270 K, 2400 kPa | 1484.58
270 K, 2768 kPa | 1485.54
270 K, 3627 kPa | 1487.88
270 K, 15483 kPa | 1517.06
270 K, 25381 kPa | 1538
270 K, 35970 kPa | 1557.73
270 K, 45944 kPa | 1574.79
270 K, 56182 kPa | 1590.7
270 K, 63322 kPa | 1601.09
270.01 K, 1412 kPa | 1481.79
270.01 K, 3077 kPa | 1486.41
270.01 K, 8526 kPa | 1500.56
298.14 K, 686 kPa | 1402.27
298.14 K, 1019 kPa | 1403.48
298.14 K, 2067 kPa | 1407.39
298.14 K, 2429 kPa | 1408.71
298.14 K, 2749 kPa | 1409.89
298.14 K, 6905 kPa | 1424.28
298.14 K, 14368 kPa | 1447.12
298.14 K, 20993 kPa | 1465.01
298.14 K, 42543 kPa | 1512.9
298.14 K, 50266 kPa | 1527.35
298.14 K, 57226 kPa | 1539.49
298.14 K, 63755 kPa | 1550.31
298.14 K, 69807 kPa | 1559.74
298.15 K, 1398 kPa | 1404.87
298.15 K, 1714 kPa | 1406.06
298.15 K, 3086 kPa | 1411.1
298.15 K, 3454 kPa | 1412.44
298.15 K, 28151 kPa | 1482.31
298.15 K, 36116 kPa | 1499.98
319.99 K, 1077 kPa | 1338.31
319.99 K, 1422 kPa | 1340.05
319.99 K, 1769 kPa | 1341.72
319.99 K, 2102 kPa | 1343.35
319.99 K, 2468 kPa | 1345.14
319.99 K, 2807 kPa | 1346.81
319.99 K, 3154 kPa | 1348.46
319.99 K, 3382 kPa | 1349.54
319.99 K, 7540 kPa | 1367.61
319.99 K, 14192 kPa | 1392.66
319.99 K, 20555 kPa | 1413.23
319.99 K, 27780 kPa | 1434.19
319.99 K, 36829 kPa | 1456.94
319.99 K, 43292 kPa | 1471.79
319.99 K, 49802 kPa | 1485.45
319.99 K, 56704 kPa | 1498.94
319.99 K, 62748 kPa | 1510.07
319.99 K, 69080 kPa | 1521.1
349.98 K, 1415 kPa | 1240.4
349.98 K, 2137 kPa | 1246.23
349.98 K, 2476 kPa | 1248.87
349.98 K, 2793 kPa | 1251.27
349.98 K, 3057 kPa | 1253.22
349.98 K, 3564 kPa | 1256.93
349.98 K, 7128 kPa | 1280.11
349.98 K, 14242 kPa | 1317.8
349.98 K, 21180 kPa | 1347.2
349.98 K, 27731 kPa | 1370.9
349.98 K, 35848 kPa | 1396.4
349.98 K, 42725 kPa | 1415.5
349.98 K, 49699 kPa | 1433.1
349.98 K, 63152 kPa | 1463.4
349.98 K, 67876 kPa | 1472.9
349.99 K, 1706 kPa | 1242.74
349.99 K, 56839 kPa | 1449.7
374.97 K, 2088 kPa | 1141.8
374.97 K, 2486 kPa | 1147.25
374.97 K, 3125 kPa | 1156.09
374.97 K, 3513 kPa | 1160.16
374.97 K, 7191 kPa | 1197.39
374.97 K, 13814 kPa | 1245.37
374.97 K, 21029 kPa | 1284.3
374.97 K, 35276 kPa | 1341.17
374.98 K, 2825 kPa | 1151.69
374.98 K, 27477 kPa | 1312.44
374.98 K, 42480 kPa | 1364.11
374.98 K, 49122 kPa | 1383.05
374.98 K, 55869 kPa | 1400.52
374.98 K, 61365 kPa | 1413.75
374.98 K, 69602 kPa | 1432.06
399.96 K, 3164 kPa | 1019.46
399.96 K, 4220 kPa | 1047.59
399.96 K, 21341 kPa | 1223.13
399.97 K, 3545 kPa | 1030.57
399.97 K, 4902 kPa | 1062.22
399.97 K, 5593 kPa | 1075.12
399.97 K, 6171 kPa | 1085.57
399.97 K, 7297 kPa | 1101.78
399.97 K, 14445 kPa | 1176.05
399.97 K, 27495 kPa | 1255.89
399.97 K, 42176 kPa | 1315.43
399.97 K, 49196 kPa | 1338.37
399.97 K, 56478 kPa | 1359.31
399.98 K, 35409 kPa | 1290.45
399.98 K, 62903 kPa | 1376.29
399.98 K, 68677 kPa | 1390.42
424.96 K, 4905 kPa | 873.33
424.96 K, 5555 kPa | 914.74
424.96 K, 6222 kPa | 944.04
424.96 K, 7091 kPa | 972.83
424.96 K, 13955 kPa | 1091.53
424.96 K, 27401 kPa | 1198.64
424.97 K, 21076 kPa | 1156.9
424.97 K, 35181 kPa | 1238.98
424.97 K, 41997 kPa | 1268.18
424.97 K, 49019 kPa | 1294.18
424.97 K, 56094 kPa | 1317.32
424.97 K, 62391 kPa | 1335.91
424.97 K, 68657 kPa | 1352.82
